Source: patent US11000033B2, “Ketone or oxime compound, and herbicide” (NISSAN CHEMICAL CORPORATION, priority 2014, dated 2021)

Legend:
Type in all cases: in vivo
[1] = system: Echinochloa oryzacola Vasing.; experiment: Test Example 1: herbicidal activity, application before weed generation in submerged conditions (symbol A); conditions: application herbicide amount 320 g/ha
Outline: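 Application before weed emergence: an aqueous dilution of the emulsion formulation was poured onto the surface of 4 cm-deep floodwater on the day of sowing. Effect was judged after 3 weeks (greenhouse, 25–30 °C).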

[2] = system: Echinochloa oryzacola Vasing.; experiment: Test Example 2: herbicidal activity, application during weed generation in submerged conditions (symbol A); conditions: Table 23; application herbicide amount 320 g/ha; grade 0-5 by criteria of Test Example 1
Outline: (§1)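 Scoring of herbicidal effect took place 3 weeks after treatment, using the criteria of the earlier test. Treatment was water-surface application of diluted emulsifiable compound at a set dose. Plants were at one- to two-leaf stage in submerged alluvial soil (4 cm depth), greenhouse 25-30° C.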

Monochoria vaginalis = experiment: Test Example 2: herbicidal activity, application during weed generation in submerged conditions (symbol C); conditions: Table 23; application herbicide amount 320 g/ha; grade 0-5 by criteria of Test Example 1
Outline: as §1

Cyperus difformis = experiment: Test Example 3: herbicidal effect by foliage application, Wagner pot (symbol E); conditions: application herbicide amount 320 g/ha
Outline: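 Foliar spray of a water-diluted emulsion at a predetermined herbicide amount, applied to 14-day-old plants. Seedlings were raised in flooded alluvial soil (0.1–0.5 cm water) at 25–30 °C in a greenhouse. Injury was rated after 3 weeks against fixed criteria.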

[3] = system: Echinochloa crus-galli var. crus-galli; experiment: Test Example 4: herbicidal effect by soil treatment (symbol H); conditions: application herbicide amount 320 g/ha
Outline: (§2)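 Seeds were sown in sterilized diluvial soil, covered with about 1.5 cm of soil, and the soil surface was sprayed with a water-diluted emulsion of the compound at a predetermined rate. Plants grew in a greenhouse at 25° C. to 30° C.; effects were scored visually 3 weeks after application.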

Alopecurus myosuroides [4] = experiment: Test Example 4: herbicidal effect by soil treatment (symbol J); conditions: application herbicide amount 320 g/ha
Outline: as §2

soybean = experiment: Test Example 4: effect on crop by soil treatment (symbol d); conditions: application herbicide amount 320 g/ha
Outline: (§3)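 Crop seed is sown in spots together with several weed species in a box of sterilized diluvial soil. It is covered by about 1.5 cm of soil and kept in a greenhouse held between 25° C. and 30° C.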

wheat [5] = experiment: Test Example 4: effect on crop by soil treatment (symbol e); conditions: application herbicide amount 320 g/ha
Outline: as §3

beet = experiment: Test Example 4: effect on crop by soil treatment (symbol f); conditions: application herbicide amount 320 g/ha
Outline: as §3

Alopecurus myosuroides [6] = experiment: Test Example 5: herbicidal effect by foliage application, plastic box (symbol J); conditions: 320 g/ha, 3 weeks after application
Outline: (§4)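 Leaf-applied emulsion, water-diluted to a preset herbicide dose, on two-week-old seedlings raised in a 25° C. to 30° C. greenhouse; injury rated at 3 weeks using earlier criteria.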

Amaranthus retroflexus = experiment: Test Example 5: herbicidal effect by foliage application, plastic box (symbol N); conditions: 320 g/ha, 3 weeks after application
Outline: as §4

wheat [7] = experiment: Test Example 5: effect on crop by foliage application, plastic box (symbol e); conditions: 320 g/ha, 3 weeks after application
Outline: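 Greenhouse test at 25° C. to 30° C. Seeds of crops and weeds were spot-sown in boxes of sterilized diluvial soil under roughly 1.5 cm soil cover, then grown for foliage treatment.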

SMILES | Herbicidal effect grade, A: Echinochloa oryzacola Vasing. [1] | Herbicidal effect grade, A: Echinochloa oryzacola Vasing. [2] | Herbicidal effect grade, C: Monochoria vaginalis (Monochoria vaginalis) | herbicidal effect on E, grade 0-5 (Cyperus difformis) | H: Echinochloa crus-galli var. crus-galli, herbicidal effect grade [3] | J: Alopecurus myosuroides, herbicidal effect grade (Alopecurus myosuroides [4]) | d: soybean, effect on crop grade (soybean) | e: wheat, effect on crop grade (wheat [5]) | f: beet, effect on crop grade (beet) | J: Alopecurus myosuroides, herbicidal effect (criteria of Test Example 1) (Alopecurus myosuroides [6]) | N: Amaranthus retroflexus, herbicidal effect (criteria of Test Example 1) (Amaranthus retroflexus) | e: wheat, effect on crop (criteria of Test Example 1) (wheat [7])
CON=C(C)CC1CC(O)=C(c2c(C)cc(-c3ccc(Cl)cc3)cc2OC)C1=O (stereo not drawn) [6-077, 2-(4′-chloro-3-methoxy-5-methyl-[1,1′-biphenyl]-4-yl)-3-hydroxy-5-{2-(methoxyimino)propyl}cyclopent-2-enone] | 5 (Herbicidal ratio of 90% or more (almost completely withered)) | 5 (Herbicidal ratio of 90% or more (almost completely withered)) | 3 (Herbicidal ratio of 40% or higher and lower than 70%) | 5 (Herbicidal ratio of 90% or more (almost completely withered)) | 5 (Herbicidal ratio of 90% or more (almost completely withered)) | 5 (Herbicidal ratio of 90% or more (almost completely withered)) | 0 (Herbicidal ratio of 5% or lower (almost no effect)) | 0 (Herbicidal ratio of 5% or lower (almost no effect)) | 1 (Herbicidal ratio of 5% or higher and lower than 20%) | 5 (Herbicidal ratio of 90% or more (almost completely withered)) | 1 (Herbicidal ratio of 5% or higher and lower than 20%) | 5 (Herbicidal ratio of 90% or more (almost completely withered))
CON=C(C)CC1CC(OC(=O)N2CCOCC2)=C(c2c(C)cc(-c3ccc(Cl)cc3)cc2OC)C1=O (stereo not drawn) [6-078, 2-(4′-chloro-3-methoxy-5-methyl-[1,1′-biphenyl]-4-yl)-4-{2-(methoxyimino)propyl}-3-oxocyclopent-1-ene-1-yl morpholine-4-carboxylate] | 5 (Herbicidal ratio of 90% or more (almost completely withered)) | 4 (Herbicidal ratio of 70% or higher and lower than 90%) | 3 (Herbicidal ratio of 40% or higher and lower than 70%) | 0 (Herbicidal ratio of 5% or lower (almost no effect)) | 0 (Herbicidal ratio of 5% or lower (almost no effect)) | 0 (Herbicidal ratio of 5% or lower (almost no effect)) | 1 (Herbicidal ratio of 5% or higher and lower than 20%) | 0 (Herbicidal ratio of 5% or lower (almost no effect)) | 0 (Herbicidal ratio of 5% or lower (almost no effect)) | 5 (Herbicidal ratio of 90% or more (almost completely withered)) | 0 (Herbicidal ratio of 5% or lower (almost no effect)) | 5 (Herbicidal ratio of 90% or more (almost completely withered))
CON=C(C)CC1CC(OC(=O)COc2ccccc2)=C(c2c(C)cc(-c3ccc(Cl)cc3)cc2OC)C1=O (stereo not drawn) [6-079] | 4 (Herbicidal ratio of 70% or higher and lower than 90%) | 3 (Herbicidal ratio of 40% or higher and lower than 70%) | 3 (Herbicidal ratio of 40% or higher and lower than 70%) | 4 (Herbicidal ratio of 70% or higher and lower than 90%) | 5 (Herbicidal ratio of 90% or more (almost completely withered)) | 3 (Herbicidal ratio of 40% or higher and lower than 70%) | 0 (Herbicidal ratio of 5% or lower (almost no effect)) | 3 (Herbicidal ratio of 40% or higher and lower than 70%) | 0 (Herbicidal ratio of 5% or lower (almost no effect)) | 5 (Herbicidal ratio of 90% or more (almost completely withered)) | 0 (Herbicidal ratio of 5% or lower (almost no effect)) | 5 (Herbicidal ratio of 90% or more (almost completely withered))
CON=C(C)CC1CC(OC(=O)CCCC(C)=O)=C(c2c(C)cc(-c3ccc(Cl)cc3)cc2C)C1=O (stereo not drawn) [6-080] | 5 (Herbicidal ratio of 90% or more (almost completely withered)) | 5 (Herbicidal ratio of 90% or more (almost completely withered)) | 3 (Herbicidal ratio of 40% or higher and lower than 70%) | 5 (Herbicidal ratio of 90% or more (almost completely withered)) | 5 (Herbicidal ratio of 90% or more (almost completely withered)) | 5 (Herbicidal ratio of 90% or more (almost completely withered)) | 0 (Herbicidal ratio of 5% or lower (almost no effect)) | 0 (Herbicidal ratio of 5% or lower (almost no effect)) | 0 (Herbicidal ratio of 5% or lower (almost no effect)) | 5 (Herbicidal ratio of 90% or more (almost completely withered)) | 0 (Herbicidal ratio of 5% or lower (almost no effect)) | 5 (Herbicidal ratio of 90% or more (almost completely withered))
CON=C(C)CC1CC(OC(=O)SC(C)(C)C)=C(c2c(C)cc(-c3ccc(Cl)cc3)cc2C)C1=O (stereo not drawn) [6-082] | 5 (Herbicidal ratio of 90% or more (almost completely withered)) | 4 (Herbicidal ratio of 70% or higher and lower than 90%) | 5 (Herbicidal ratio of 90% or more (almost completely withered)) | 5 (Herbicidal ratio of 90% or more (almost completely withered)) | 5 (Herbicidal ratio of 90% or more (almost completely withered)) | 5 (Herbicidal ratio of 90% or more (almost completely withered)) | 0 (Herbicidal ratio of 5% or lower (almost no effect)) | 0 (Herbicidal ratio of 5% or lower (almost no effect)) | 0 (Herbicidal ratio of 5% or lower (almost no effect)) | 5 (Herbicidal ratio of 90% or more (almost completely withered)) | 1 (Herbicidal ratio of 5% or higher and lower than 20%) | 5 (Herbicidal ratio of 90% or more (almost completely withered))
CON=C(C)CC1CC(OCOC(=O)c2ccccc2)=C(c2c(C)cc(-c3ccc(Cl)cc3)cc2C)C1=O (stereo not drawn) [6-083] | 5 (Herbicidal ratio of 90% or more (almost completely withered)) | 5 (Herbicidal ratio of 90% or more (almost completely withered)) | 4 (Herbicidal ratio of 70% or higher and lower than 90%) | 5 (Herbicidal ratio of 90% or more (almost completely withered)) | 0 (Herbicidal ratio of 5% or lower (almost no effect)) | 5 (Herbicidal ratio of 90% or more (almost completely withered)) | 0 (Herbicidal ratio of 5% or lower (almost no effect)) | 0 (Herbicidal ratio of 5% or lower (almost no effect)) | 0 (Herbicidal ratio of 5% or lower (almost no effect)) | 5 (Herbicidal ratio of 90% or more (almost completely withered)) | 3 (Herbicidal ratio of 40% or higher and lower than 70%) | 4 (Herbicidal ratio of 70% or higher and lower than 90%)
